# Several values for one entry are separate records, joined by “and”; a condition that tells them apart may be missing. Identical values can stand only once. Entries after “also recorded” stand apart in the source; their conditions may differ. Like-named read-outs stand apart in the source and are kept apart here.
# Experiments:
# [1] = system: Influenza virus (A/PR8/8/34 strain, H1N1); set-up: species or system BALB/c mice; conditions: mouse, in vivo
# [2] = system: M2e; set-up: species or system BALB/c mice; conditions: mouse, in vivo
# [3] = system: M2e; set-up: species or system BALB/c mice; conditions: mouse, in vivo; remark: listed apart in the source
# [4] = system: Influenza virus (A/PR8/8/34 strain, H1N1); type: in vivo, BALB/c mice; conditions: 21 days
sequence,measurement,setting,value
"SLLTEVETPIRNEWGCRCNDSSD (Influenza A virus) [M2e, peptide of 23 amino acid residues, positions No. 2 to No. 24 of M2 in influenza virus type A, no cysteine inserted, reference compound]",Survival rate,[1],3/8
same,anti-M2e antibody titer just before challenge,[2],could not induce an anti-M2e antibody titer
"SLLTEVETPTRSEWECRCSDSSD [swM2e, reference compound]",anti-M2e antibody titer immediately before challenge,[3],high anti-M2e antibody titer; also recorded: almost no increase in an antibody titer
same,Survival rate,[4],4/10 and 8/10

# Source: US8883165B2, “Modified peptide vaccine derived from influenza M2” (The Chemo-Sero-Therapeutic Research Institute, priority 2009, dated 2014)
